Values after ≈ are worked out from the molar mass of the structure shown. Like-named read-outs stand apart in the source and are kept apart here.
How the values were obtained:
[1] = test system: Bacillus subtilis ATCC 6633; assay: MIC, agar plate dilution method; assay type: cell-based
Description: (§1) Test Method: In accordance with a standard method by Japan Chemotherapeutic Society [Chemotherapy, 29(1), pages 76-79, 1981], agar plate dilution method was used and the MIC was measured. Thus, bouillon for measuring sensitivity was used and the bacterial liquid cultured at 37° C. for 18 hours was diluted to an extent of 10^6 CFU/ml using said medium. This was inoculated to an agar medium containing drug for measuring sensitivity using a microplanter, cultured at 37° C. for 18 hours, and MIC was measured. Ofloxacin was used for comparison/control.
(§2) The above described test was additionally conducted on the compounds of the examples described below using the same microorganisms.

[2] = test system: Escherichia coli N1HJ JC-2; assay: MIC, agar plate dilution method; assay type: cell-based
Description: as §1, §2

[3] = test system: Klebsiella pneumoniae NCTC 9632; assay: MIC, agar plate dilution method; assay type: cell-based
Description: as §1, §2

[4] = test system: Pseudomonas aeruginosa IFO-3445; assay: MIC, agar plate dilution method; assay type: cell-based
Description: as §1, §2

[5] = test system: Serratia marcescens IFO 3736; assay: MIC, agar plate dilution method; assay type: cell-based
Description: as §1, §2

[6] = test system: Shigella flexneri 2a EW-10; assay: MIC, agar plate dilution method; assay type: cell-based
Description: as §1, §2

[7] = test system: Staphylococcus aureus 209-P JC-1; assay: MIC, agar plate dilution method; assay type: cell-based
Description: as §1, §2

[8] = test system: Streptococcus pneumoniae Type I; assay: MIC, agar plate dilution method; assay type: cell-based
Description: as §1, §2

[9] = test system: Streptococcus pyogenes S-23; assay: MIC, agar plate dilution method; assay type: cell-based
Description: as §1, §2

E. Coli KC-14 [10] = assay: Therapeutic effect on infections in mice, similar test (Table 4); assay type: in vivo, ddY strain male mice; settings: E. coli KC-14, 2.5×10^5 cfu/mouse
Description: (§3) Test method: E. Coli KC-14 and P. aeruginosa E-2 were suspended in 5% mucin and 0.5 ml of the suspension was injected intraperitoneally to ddY strain male mice (body weight: ca. 20 g; four weeks age; 10 mice per group). The amount of the bacteria inoculated was 5.1×10^4 CFU/mouse for E. coli and 7.5×10^4 CFU/mouse for P. aeruginosa. Drug was given orally once after 2 hours of inoculation and, out of the survival rate after one week, ED50 was calculated by a Probit method. As to a comparison/control, ofloxacin was used.
(§4) A similar test was conducted by inoculating E. coli KC-14 (2.5×10^5 cfu/mouse) and P. aeruginosa E-2 (1.25×10^5 cfu/mouse) and the result is given in Table 4.

P. aeruginosa E-2 [11] = assay: as above; assay type: in vivo, ddY strain male mice; settings: P. aeruginosa E-2, 1.25×10^5 cfu/mouse
Description: as §3, §4

E. Coli KC-14 [12] = assay: Therapeutic effect on infections in mice (Table 3); assay type: in vivo, ddY strain male mice; settings: E. coli KC-14, 5.1×10^4 CFU/mouse i.p.; drug orally once 2 hours after inoculation; survival after one week, Probit
Description: as §3

P. aeruginosa E-2 [13] = assay: Therapeutic effect on infections in mice (Table 3); assay type: in vivo, ddY strain male mice; settings: P. aeruginosa E-2, 7.5×10^4 CFU/mouse i.p.; drug orally once 2 hours after inoculation; survival after one week, Probit
Description: as §3

[14] = test system: Proteus mirabilis IFO 3849; assay: MIC, agar plate dilution method; assay type: cell-based; settings: IFO3849, Table 1, 10^6 CFU/ml, 37° C., 18 hours
Description: as §1, §2

[15] = ATCC6633, 18 h, Table 2, same microorganisms as Table 1
[16] = N1HJJC2, 18 h, Table 2, same microorganisms as Table 1, read-out: MIC
[17] = NCTC9632, 18 h, Table 2, same microorganisms as Table 1
[18] = IFO3445, 18 h, Table 2, same microorganisms as Table 1
[19] = IFO3736, 18 h, Table 2, same microorganisms as Table 1
[20] = 2AEW10, 18 h, Table 2, same microorganisms as Table 1
[21] = 18 h, Table 2, same microorganisms as Table 1
[22] = ATCC6633, Table 1, 10^6 CFU/ml, 37° C., 18 hours
[23] = NCTC9632, Table 1, 10^6 CFU/ml, 37° C., 18 hours
[24] = IFO3445, Table 1, 10^6 CFU/ml, 37° C., 18 hours
[25] = IFO3736, Table 1, 10^6 CFU/ml, 37° C., 18 hours
[26] = 2AEW10, Table 1, 10^6 CFU/ml, 37° C., 18 hours
[27] = Table 1, 10^6 CFU/ml, 37° C., 18 hours
[28] = S23, Table 1, 10^6 CFU/ml, 37° C., 18 hours

Compound | MIC [1, 15] [µg/mL] | MIC [2, 16] [µg/mL] | MIC [3, 17] [µg/mL] | MIC [4, 18] [µg/mL] | MIC [5, 19] [µg/mL] | MIC [6, 20] [µg/mL] | MIC [7, 21] [µg/mL] | ED50 (E. Coli KC-14 [10]) [mg/mouse] | ED50 (P. aeruginosa E-2 [11]) [mg/mouse] | ED50 (E. Coli KC-14 [12]) [mg/mouse] | ED50 (P. aeruginosa E-2 [13]) [mg/mouse] | other results
O=C(O)c1c2n(c3c(F)c(N4CCNCC4)c(F)cc3c1=O)CS2 [Example 5, 6,8-Difluoro-4-oxo-7-(1-piperazinyl)-4-oxo-4H-[1,3]thiazeto[3,2-a]quinoline-3-carboxylic acid] | 0.1 (≈ 0.283 µM) | 0.025 (≈ 0.0708 µM) | 0.025 (≈ 0.0708 µM) | 0.2 (≈ 0.566 µM) | 0.05 (≈ 0.142 µM) | 0.0125 (≈ 0.0354 µM) | 0.1 (≈ 0.283 µM) |  |  |  |  | 
NC1CCN(c2c(F)cc3c(=O)c(C(=O)O)c4n(c3c2F)CS4)C1 (centres unmarked) [Example 9, 7-(3-Amino-1-pyrrolidinyl)-6,8-difluoro-4-oxo-4H-[1,3]thiazeto[3,2-a]quinoline-3-carboxylic acid] | 0.1 (≈ 0.283 µM) | 0.0125 (≈ 0.0354 µM) | 0.0125 (≈ 0.0354 µM) | 0.0125 (≈ 0.0354 µM) | 0.1 (≈ 0.283 µM) | ≤ 0.00625 | 0.025 (≈ 0.0708 µM) |  |  |  |  | 
CC1Sc2c(C(=O)O)c(=O)c3cc(F)c(N4CCN(C)CC4)c(F)c3n21 (centres unmarked) [Example 4, 6,8-Difluoro-1-methyl-7-(4-methyl-1-piperazinyl)-4-oxo-[1,3]thiazeto[3,2-a]quinoline-3-carboxylic acid] | 0.05 (≈ 0.131 µM) | 0.05 (≈ 0.131 µM) | 0.025 (≈ 0.0655 µM) | 0.2 (≈ 0.524 µM) | 0.2 (≈ 0.524 µM) | 0.0125 (≈ 0.0328 µM) | 0.2 (≈ 0.524 µM) | 0.011 | 0.177 |  |  | MIC [8, 21]: 0.39 µg/mL (≈ 1.02 µM); MIC ([9]; S23, 18 h, Table 2, same microorganisms as Table 1): 0.39 µg/mL (≈ 1.02 µM)
CN1CCN(c2c(F)cc3c(=O)c(C(=O)O)c4n(c3c2F)CS4)CC1 [Example 7, 6,8-Difluoro-7-(4-methyl-1-piperazinyl)-4-oxo-4H-[1,3]thiazeto[3,2-a]quinoline-3-carboxylic acid] | 0.05 (≈ 0.136 µM) | 0.05 (≈ 0.136 µM) | 0.0125 (≈ 0.034 µM) | 0.39 (≈ 1.06 µM) | 0.1 (≈ 0.272 µM) | 0.025 (≈ 0.068 µM) | 0.2 (≈ 0.544 µM) | 0.014 | 0.263 |  |  | 
O=C(O)c1c2n(c3c(F)c(N4CCNCC4)c(F)cc3c1=O)C(c1ccccc1)S2 (centres unmarked) [Example 21, 6,8-Difluoro-4-oxo-1-phenyl-7-(1-piperazinyl)-4H-[1,3]thiazeto[3,2-a]quinoline-3-carboxylic acid] | 0.1 (≈ 0.233 µM) | 0.1 (≈ 0.233 µM) | ≤ 0.00625 | 0.39 (≈ 0.908 µM) | 1.56 (≈ 3.63 µM) | 0.05 (≈ 0.116 µM) | 0.2 (≈ 0.466 µM) |  |  |  |  | 
CCOC(=O)c1c2n(c3c(F)c(N4CCNCC4)c(F)cc3c1=O)C(c1ccc(F)cc1)S2 (centres unmarked) [Example 25, Ethyl 6,8-difluoro-1-(4-fluorophenyl)-4-oxo-7-(1-piperazinyl)-4H-[1,3]thiazeto[3,2-a]quinoline-3-carboxylate] | 0.1 (≈ 0.21 µM) | 0.1 (≈ 0.21 µM) |  | 0.39 (≈ 0.82 µM) | 1.56 (≈ 3.28 µM) | 0.05 (≈ 0.105 µM) | 0.2 (≈ 0.421 µM) |  |  |  |  | 
CCOC(=O)c1c2n(c3c(F)c(N4CCNCC4)c(F)cc3c1=O)C(C)S2 (centres unmarked) [Example 1, Ethyl 6,8-difluoro-1-methyl-4-oxo-7-(1-piperazinyl)-4H-[1,3]thiazeto[3,2-a]quinoline-3-carboxyate] |  |  |  |  |  |  |  |  |  | 0.0046 | 0.09 | 
CC1Sc2c(C(=O)O)c(=O)c3cc(F)c(N4CCNCC4)c(F)c3n21 (centres unmarked) [Example 2, 6,8-Difluoro-1-methyl-4-oxo-7-(1-piperazinyl)-4H-[1,3]thiazeto[3,2-a]quinoline-3-carboxylic acid] |  |  |  |  |  |  |  | 0.013 | 0.156 | 0.0078 | 0.154 | MIC [1, 22]: 0.05 µg/mL (≈ 0.136 µM); MIC ([2]; N1HJJC2, 18 h): 0.0125 µg/mL (≈ 0.034 µM); MIC [3, 23]: 0.0125 µg/mL (≈ 0.034 µM); MIC [14]: 0.025 µg/mL (≈ 0.068 µM); MIC [4, 24]: 0.1 µg/mL (≈ 0.272 µM); MIC [5, 25]: 0.1 µg/mL (≈ 0.272 µM); MIC [6, 26]: ≤ 0.00625 µg/mL; MIC [7, 27]: 0.1 µg/mL (≈ 0.272 µM); MIC [8, 27]: 0.39 µg/mL (≈ 1.06 µM); MIC [9, 28]: 0.39 µg/mL (≈ 1.06 µM)
CC1COc2c(N3CCN(C)CC3)c(F)cc3c(=O)c(C(=O)O)cn1c23 (racemic) [Ofloxacin, ofloxacin, reference compound] |  |  |  |  |  |  |  | 0.052 | 0.521 | 0.011 | 0.692 | MIC [1, 22]: 0.1 µg/mL (≈ 0.277 µM); MIC ([2]; N1HJJC2, Table 1, 10^6 CFU/ml, 37° C., 18 hours, read-out: MIC): 0.1 µg/mL (≈ 0.277 µM); MIC [3, 23]: 0.05 µg/mL (≈ 0.138 µM); MIC [14]: 0.39 µg/mL (≈ 1.08 µM); MIC [4, 24]: 1.56 µg/mL (≈ 4.32 µM); MIC [5, 25]: 0.78 µg/mL (≈ 2.16 µM); MIC [6, 26]: 0.025 µg/mL (≈ 0.0692 µM); MIC [7, 27]: 0.39 µg/mL (≈ 1.08 µM); MIC [8, 27]: 1.56 µg/mL (≈ 4.32 µM); MIC [9, 28]: 1.56 µg/mL (≈ 4.32 µM)
